Test results published in ChEMBL document CHEMBL5303304, “EUbOPEN Chemogenomics Library - IncuCyte” (2023).

Key:
Format in all cases: toxicity, cell-based
HEK-293T = assay: Incucyte cell viability with HEK293T; conditions: human, 10 µM, compound concentration 10 uM
Fibroblast = assay: Incucyte cell viability with human fibroblast; conditions: 10 µM, compound concentration 10 uM
U2OS = assay: Incucyte cell viability with U2OS; conditions: human, 10 µM, compound concentration 10 uM
Note: unitless GR value; below 1 slowed growth and below 0 cell loss.

| SMILES | Growth Rate (HEK-293T; 0 h, replicate number 1) | Growth Rate (HEK-293T; 6 h, replicate number 2) | Growth Rate (HEK-293T; 12 h, replicate number 2) | Growth Rate (HEK-293T; 18 h, replicate number 2) | Growth Rate (HEK-293T; 24 h, replicate number 1) | Growth Rate (HEK-293T; 24 h, replicate number 2) | Growth Rate (Fibroblast; 6 h, replicate number 1) | Growth Rate (Fibroblast; 6 h, replicate number 2) | Growth Rate (Fibroblast; 12 h, replicate number 1) | Growth Rate (Fibroblast; 18 h, replicate number 2) | Growth Rate (Fibroblast; 24 h, replicate number 2) | Growth Rate (U2OS; 6 h, replicate number 2) | Growth Rate (U2OS; 12 h, replicate number 1) | Growth Rate (U2OS; 12 h, replicate number 2) | Growth Rate (U2OS; 18 h, replicate number 1) | Growth Rate (U2OS; 18 h, replicate number 2) | Growth Rate (U2OS; 24 h, replicate number 1) | Growth Rate (U2OS; 24 h, replicate number 2) | Growth Rate (U2OS; 0 h, replicate number 1) | Growth Rate (U2OS; 6 h, replicate number 1) | further results |
| --- | --- | --- | --- | --- | --- | --- | --- | --- | --- | --- | --- | --- | --- | --- | --- | --- | --- | --- | --- | --- | --- |
| COc1ccc(Cl)cc1[C@]1(F)C(=O)Nc2cc(C(F)(F)F)ccc21 [FLINDOKALNER] | 0.73 | 0.03 | 0.38 | 0.4 | 0.44 | 0.47 | -0.6 | -1 | -1 | 0.41 | 0.58 | 0.48 | 0.57 | 0.76 | 0.79 | 0.88 | 0.83 | 0.95 |  |  | Growth Rate (HEK-293T; 6 h, replicate number 1): 0.73; Growth Rate (HEK-293T; 12 h, replicate number 1): 0.58; Growth Rate (HEK-293T; 18 h, replicate number 1): 0.42; Growth Rate (Fibroblast; 12 h, replicate number 2): 0.2 |
| O=C(O)CCC/C=C\C[C@@H]1[C@@H](/C=C/[C@@H](O)COc2cccc(C(F)(F)F)c2)[C@H](O)C[C@@H]1O [FLUPROSTENOL] | -0.11 |  |  |  |  |  | 0.15 | -0.58 | 0.5 | 0.18 | 0.44 | 0.95 |  | 0.91 |  | 0.9 |  | 0.91 | 0.61 | 0.86 | Growth Rate (HEK-293T; 0 h, replicate number 2): 0.68; Growth Rate (Fibroblast; 12 h, replicate number 2): 0.09; Growth Rate (Fibroblast; 18 h, replicate number 1): 0.89; Growth Rate (Fibroblast; 24 h, replicate number 1): 0.8 |
| Cc1nc2c([nH]1)c(=O)n(C)c(=O)n2Cc1ccco1 [FURAFYLLINE] |  | 0.63 | 0.76 | 0.82 | 0.87 | 0.88 | 0.42 |  | -1 |  |  | 0.59 | 0.95 |  |  | 1 |  |  | -0.64 |  | Growth Rate (HEK-293T; 6 h, replicate number 1): 0.19; Growth Rate (HEK-293T; 12 h, replicate number 1): 0.18; Growth Rate (HEK-293T; 18 h, replicate number 1): 0.7; Growth Rate (Fibroblast; 0 h, replicate number 2): -0.99; Growth Rate (Fibroblast; 18 h, replicate number 1): 0.5; Growth Rate (Fibroblast; 24 h, replicate number 1): 0.65; Growth Rate (U2OS; 0 h, replicate number 2): -0.96 |
| COc1ccc(CCN(C)CCCC(C#N)(c2cc(OC)c(OC)c(OC)c2)C(C)C)cc1OC.Cl (centres undefined) [GALLOPAMIL HYDROCHLORIDE] |  |  | 0.97 | 0.94 |  | 0.94 | -0.5 | 0.16 | 0.03 | 0.41 | 0.73 |  |  |  |  |  |  | 1 |  |  | Growth Rate (HEK-293T; 6 h, replicate number 1): 0.31; Growth Rate (HEK-293T; 12 h, replicate number 1): 0.9; Growth Rate (Fibroblast; 0 h, replicate number 1): -0.26; Growth Rate (Fibroblast; 12 h, replicate number 2): 0.12; Growth Rate (U2OS; 0 h, replicate number 2): -0.88 |
| Cc1cccc(-c2nn3c(c2-c2ccnc4ccc(C(N)=O)cc24)CCC3)n1 [GALUNISERTIB] | -0.5 | 0.64 | 0.74 | 0.73 |  | 0.8 |  |  |  |  |  |  | 0.66 | 0.83 | 0.75 | 0.87 | 0.93 | 0.76 | -0.43 | 0.57 | Growth Rate (Fibroblast; 0 h, replicate number 2): -0.6; Growth Rate (U2OS; 0 h, replicate number 2): 0.64 |
| CN[C@@H](C)C(=O)N[C@H](C(=O)N1CCC[C@H]1C(=O)Nc1snnc1-c1ccccc1)C1CCCCC1 [GDC-0152] | 0.81 | -0.14 | 0.05 | 0.07 | -0.26 | 0.07 | -0.88 |  |  |  |  |  |  | 0.89 |  | 0.98 |  | 0.98 | 0.23 |  | Growth Rate (HEK-293T; 6 h, replicate number 1): 0.13; Growth Rate (HEK-293T; 12 h, replicate number 1): -0.36; Growth Rate (HEK-293T; 18 h, replicate number 1): -0.27; Growth Rate (Fibroblast; 0 h, replicate number 1): -0.28; Growth Rate (Fibroblast; 0 h, replicate number 2): -0.71; Growth Rate (Fibroblast; 18 h, replicate number 1): 0.81 |
| CN(C)CCCn1cc(C2=C(c3c[nH]c4ccccc34)C(=O)NC2=O)c2ccccc21 [GF-109203] | -0.26 |  | 0.81 | 0.99 |  | 0.98 | -0.72 |  | -1 | 0.65 | 0.41 |  |  |  | 0.94 |  | 0.8 | 0.82 | -0.01 |  | Growth Rate (HEK-293T; 0 h, replicate number 2): -0.46; Growth Rate (Fibroblast; 0 h, replicate number 2): -0.49 |
| Cn1c2ccccc2c2c3c(c4c5ccccc5n(CCC#N)c4c21)CNC3=O [GO-6976] | -0.49 | 0.05 | -0.2 | -0.19 | 0.7 | -0.14 | -0.79 |  | -1 | 0.88 | 0.48 |  |  |  | 0.29 | 0.63 | 0.17 | 0.39 |  |  | Growth Rate (HEK-293T; 0 h, replicate number 2): -0.13; Growth Rate (HEK-293T; 6 h, replicate number 1): 0.62; Growth Rate (HEK-293T; 12 h, replicate number 1): 0.69; Growth Rate (HEK-293T; 18 h, replicate number 1): 0.36; Growth Rate (U2OS; 0 h, replicate number 2): -0.94 |
| CC(=O)Nc1c(F)cc(C(=O)N[C@H]2CC[C@H](O)CC2)cc1O[C@@H](C)c1ccccc1 [GSK046] | 0.58 | 0.69 | 0.74 |  | 0.71 | 0.83 | 0.63 | 0.19 | 0.75 | 0.93 | 1 | 0.86 | 0.72 | 0.94 | 0.79 | 0.97 | 0.83 | 0.84 | -0.56 | -0.86 | Growth Rate (HEK-293T; 18 h, replicate number 1): 0.95; Growth Rate (Fibroblast; 0 h, replicate number 2): 0.44; Growth Rate (Fibroblast; 12 h, replicate number 2): 0.74; Growth Rate (Fibroblast; 18 h, replicate number 1): 0.6; Growth Rate (Fibroblast; 24 h, replicate number 1): 0.71; Growth Rate (U2OS; 0 h, replicate number 2): 0.83 |
| CNC(=O)c1cc(C(=O)NC2CC2)cn(Cc2ccccc2)c1=O [GSK620] | -0.72 | 0.74 | 0.76 | 0.99 | 0.93 | 0.8 |  | 0.25 |  |  |  | 0.92 | 0.69 |  | 0.66 |  | 0.88 |  | -0.46 | 0.54 | Growth Rate (HEK-293T; 0 h, replicate number 2): 0.91; Growth Rate (Fibroblast; 0 h, replicate number 1): 0.38 |
| COCc1nc2cnc3cc(-c4c(C)noc4C)c(OC[C@H]4CCNC4)cc3c2n1[C@H](C)c1ccccc1 [GSK778] |  |  |  |  |  |  | 0.26 | -0.01 | 0.63 |  |  | -0.84 | -0.64 | 0.73 |  | 0.74 | 1 | 0.7 | 0.09 | 0.78 | Growth Rate (HEK-293T; 0 h, replicate number 2): 0.24; Growth Rate (Fibroblast; 12 h, replicate number 2): 0.65; Growth Rate (Fibroblast; 18 h, replicate number 1): 0.73; Growth Rate (Fibroblast; 24 h, replicate number 1): 0.98; Growth Rate (U2OS; 0 h, replicate number 2): -1 |
| Cc1cc2c(-c3ccco3)cnc(N[C@@H]3CCN(C)C[C@H]3C(=O)NC3CCCCC3)c2[nH]c1=O [GSK789] | 0.12 |  |  |  |  |  | 0.33 | 0 |  |  |  | 0.89 | 1 |  |  |  |  | 1 | -0.1 | 0.92 |  |
